These results are taken from PubChem BioAssay AID248 (DTP/NCI, 2004).

The test system of this assay is L1210 leukemia ip in BDF1 mice, survival T/C. Kind of assay: NCI In Vivo Anticancer Drug Screen. Data for tumor model L1210 Leukemia (intraperitoneal) in B6D2F1 (BDF1) mice. Conditions: endpoint: mean survival time, higher = longer survival. The method, boiled down:
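Transplantable tumor model; survival measured in treated vs vehicle control mice. Value = treated/control.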

The mark [1] stands for this setting: dose: 100.0 mg/kg/injection, schedule: Q01DX001 (ip), vehicle: saline.
The mark [2] stands for this setting: dose: 25.0 mg/kg/injection, schedule: Q04DX003 (ip), vehicle: saline with Tween-80.
[3] abbreviates: dose: 50.0 mg/kg/injection, schedule: Q01DX009 (ip), vehicle: saline with Tween-80.
Setting [4] is: dose: 100.0 mg/kg/injection, schedule: Q04DX003 (ip), vehicle: saline with Tween-80.
Setting [5] is: dose: 200.0 mg/kg/injection, schedule: Q04DX003 (ip), vehicle: saline with Tween-80.
[6] abbreviates: dose: 200.0 mg/kg/injection, schedule: Q01DX001 (ip), vehicle: saline.
Where [7] appears, read: dose: 400.0 mg/kg/injection, schedule: Q01DX001 (ip), vehicle: saline.
Setting [8] is: dose: 100.0 mg/kg/injection, schedule: Q01DX009 (ip), vehicle: saline with Tween-80.
Setting [9] is: dose: 200.0 mg/kg/injection, schedule: Q01DX009 (ip), vehicle: saline with Tween-80.
Where [10] appears, read: dose: 400.0 mg/kg/injection, schedule: Q01DX009 (ip), vehicle: saline with Tween-80.
Setting [11] is: dose: 100.0 mg/kg/injection, schedule: Q01DX009 (ip), vehicle: Klucel (hydroxypropylcellulose) (HPC).

SMILES strings stand for the structures. Where “and” joins values, the source holds several entries; their conditions need not be identical. Equal entries are not always repeated. Toxic doses and inconclusive results are not listed.

For the compound `COc1cc(N(CCCl)CCCl)c(OC)cc1/C=N\NC(=O)CN(C)C`, the T/C reads like this: (dose: 2.25 mg/kg/injection, schedule: Q01DX015 (ip), vehicle: saline) 105 % of control; (dose: 4.5 mg/kg/injection, schedule: Q01DX015 (ip), vehicle: saline) 108 % of control; (dose: 6.25 mg/kg/injection, schedule: Q01DX015 (ip), vehicle: saline) 119 % of control; (dose: 9.0 mg/kg/injection, schedule: Q01DX015 (ip), vehicle: saline) 116 % of control; (dose: 10.5 mg/kg/injection, schedule: Q01DX015 (ip), vehicle: saline) 114 % of control; (dose: 12.5 mg/kg/injection, schedule: Q01DX015 (ip), vehicle: saline) 115 % of control. Besides, the T/C (dose: 18.0 mg/kg/injection, schedule: Q01DX015 (ip), vehicle: saline) is 111 % of control and 116 % of control; the T/C (dose: 25.0 mg/kg/injection, schedule: Q01DX015 (ip), vehicle: saline) is 96 % of control; the T/C (dose: 30.0 mg/kg/injection, schedule: Q01DX015 (ip), vehicle: saline) was 88 % of control; the T/C (dose: 36.0 mg/kg/injection, schedule: Q01DX015 (ip), vehicle: saline) is 94 % of control; the T/C (dose: 44.7 mg/kg/injection, schedule: Q01DX001 (ip), vehicle: saline) is 120 % of control; the T/C (dose: 50.0 mg/kg/injection, schedule: Q01DX015 (ip), vehicle: saline) is 90 % of control. For the same compound, the T/C is 162 % of control under setting [1] and 124 % of control (dose: 150.0 mg/kg/injection, schedule: Q01DX001 (ip), vehicle: saline).
Consider `Cc1ccc(C(=O)Cl)cc1S(=O)(=O)F`, for which the T/C runs as follows: (dose: 25.0 mg/kg/injection, schedule: Q01DX009 (ip), vehicle: saline with Tween-80) 95 % of control; under setting [2], 96 % of control; under setting [3], 104 % of control; (dose: 50.0 mg/kg/injection, schedule: Q04DX003 (ip), vehicle: saline with Tween-80) 100 % of control; under setting [4], 96 % of control; under setting [5], 94 % of control and 102 % of control.
`OCn1c(O)c2ccccc2c1N=Nc1ccccc1`: the T/C runs as follows: under setting [1], 95 % of control; under setting [6], 95 % of control; under setting [7], 95 % of control.
For `CC1=C(C)CC(C(Cl)(Cl)Cl)C([N+](=O)[O-])C1` (stereo unspecified), the T/C under setting [8] was 96 % of control.
On to `CCOC(=O)C(C#N)CCC#N` (stereo unspecified), for which the T/C by setting is: under setting [8], 113 % of control; under setting [9], 98 % of control; under setting [10], 104 % of control.
Turning to `Cc1ccc(C)c(NC(=O)c2ccc(C(=O)O)cc2C(=O)O)c1`, the T/C is 95 % of control under setting [11]; 98 % of control (dose: 100.0 mg/kg/injection, schedule: Q04DX002 (ip), vehicle: Klucel (hydroxypropylcellulose) (HPC)); 100 % of control (dose: 200.0 mg/kg/injection, schedule: Q01DX009 (ip), vehicle: Klucel (hydroxypropylcellulose) (HPC)); 98 % of control (dose: 200.0 mg/kg/injection, schedule: Q04DX002 (ip), vehicle: Klucel (hydroxypropylcellulose) (HPC)); 97 % of control (dose: 400.0 mg/kg/injection, schedule: Q01DX009 (ip), vehicle: Klucel (hydroxypropylcellulose) (HPC)); 95 % of control (dose: 400.0 mg/kg/injection, schedule: Q04DX002 (ip), vehicle: Klucel (hydroxypropylcellulose) (HPC)).
As to `CC1(C)OC(=O)C(C#N)C1c1ccc(Cl)cc1` (stereo unspecified), the T/C runs as follows: under setting [1], 101 % of control; under setting [6], 95 % of control; under setting [7], 95 % of control.
For `CC1CCCC(C)N1CC(O)c1ccccc1` (stereo unspecified), the T/C (dose: 6.25 mg/kg/injection, schedule: Q04DX003 (ip), vehicle: saline with Tween-80) was 94 % of control; the T/C (dose: 12.5 mg/kg/injection, schedule: Q04DX003 (ip), vehicle: saline with Tween-80) is 97 % of control; the T/C under setting [2] is 97 % of control.
Take `C/C=C1\C(=O)C2CCC1C2` (stereo unspecified): the T/C runs as follows: (dose: 100.0 mg/kg/injection, schedule: Q01DX001 (ip), vehicle: carboxymethylcellulose (CMC)) 93 % of control; (dose: 200.0 mg/kg/injection, schedule: Q01DX001 (ip), vehicle: carboxymethylcellulose (CMC)) 90 % of control; (dose: 400.0 mg/kg/injection, schedule: Q01DX001 (ip), vehicle: carboxymethylcellulose (CMC)) 95 % of control.
`O=C(O)c1ccccc1Oc1ccccc1C(=O)O`: the T/C reads like this: (dose: 100.0 mg/kg/injection, schedule: Q04DX003 (ip), vehicle: saline) 102 % of control; (dose: 200.0 mg/kg/injection, schedule: Q04DX003 (ip), vehicle: saline) 100 % of control; (dose: 400.0 mg/kg/injection, schedule: Q04DX003 (ip), vehicle: saline) 91 % of control.
Regarding `NN=C1c2ccccc2C(F)(F)c2ccccc21`, the T/C (dose: 50.0 mg/kg/injection, schedule: Q01DX001 (ip), vehicle: Klucel (hydroxypropylcellulose) (HPC)) was 95 % of control and the T/C (dose: 100.0 mg/kg/injection, schedule: Q01DX001 (ip), vehicle: Klucel (hydroxypropylcellulose) (HPC)) is 95 % of control.
On to `Cc1ccc2c(c1)CCCN2C=O`, for which the T/C is, setting by setting: under setting [3], 95 % of control; under setting [8], 93 % of control; under setting [4], 102 % of control; under setting [9], 102 % of control; under setting [5], 94 % of control.
Regarding `C=CCc1cc(OC)cc(C(=O)c2cccc(OC)c2C#N)c1OC`, the T/C reads like this: (dose: 100.0 mg/kg/injection, schedule: Q01DX001 (ip), vehicle: other) 104 % of control and 106 % of control; (dose: 100.0 mg/kg/injection, schedule: Q04DX002 (ip), vehicle: other) 104 % of control; (dose: 100.0 mg/kg/injection, schedule: Q04DX003 (ip), vehicle: other) 100 % of control and 92 % of control; (dose: 200.0 mg/kg/injection, schedule: Q01DX001 (ip), vehicle: other) 95 % of control and 107 % of control; (dose: 200.0 mg/kg/injection, schedule: Q04DX002 (ip), vehicle: other) 100 % of control and 92 % of control; (dose: 200.0 mg/kg/injection, schedule: Q04DX003 (ip), vehicle: other) 100 % of control and 92 % of control. Moreover, the T/C was 118 % of control and 90 % of control (dose: 400.0 mg/kg/injection, schedule: Q01DX001 (ip), vehicle: other); 88 % of control and 89 % of control (dose: 400.0 mg/kg/injection, schedule: Q04DX002 (ip), vehicle: other); 102 % of control and 92 % of control (dose: 400.0 mg/kg/injection, schedule: Q04DX003 (ip), vehicle: other).
For the compound `Cc1ccc(C(C)C)cc1NC(=O)c1c(Cl)c(Cl)c(Cl)c(Cl)c1C(=O)O`, the T/C (dose: 25.0 mg/kg/injection, schedule: Q01DX009 (ip), vehicle: Klucel (hydroxypropylcellulose) (HPC)) was 108 % of control; the T/C (dose: 50.0 mg/kg/injection, schedule: Q01DX009 (ip), vehicle: Klucel (hydroxypropylcellulose) (HPC)) was 91 % of control; the T/C under setting [11] was 103 % of control and 90 % of control.
Regarding `CCCCCC(C)NCC(C)(C)O` (stereo unspecified), for the setting “dose: 75.0 mg/kg/injection, schedule: Q01DX001 (ip), vehicle: acid diluted with saline”, the T/C was 102 % of control.
For `CC1CCc2cc3c(cc2C1)S(=O)(=O)c1ccccc1-3` (stereo unspecified), the T/C under setting [1] was 96 % of control, the T/C under setting [6] is 86 % of control and the T/C under setting [7] is 86 % of control.
Consider `Cc1ccc(C(=O)/C=C/c2ccccc2O)cc1`, for which the T/C is, setting by setting: under setting [8], 100 % of control; under setting [4], 105 % of control; under setting [9], 98 % of control; under setting [5], 100 % of control; under setting [10], 94 % of control; (dose: 400.0 mg/kg/injection, schedule: Q04DX003 (ip), vehicle: saline with Tween-80) 98 % of control.
Consider `CC12CC(=O)OC1(C)C1CCC2C1` (stereo unspecified), for which the T/C by setting is: (dose: 6.25 mg/kg/injection, schedule: Q01DX009 (ip), vehicle: acetone) 111 % of control; (dose: 6.25 mg/kg/injection, schedule: Q04DX003 (ip), vehicle: acetone) 101 % of control; (dose: 12.5 mg/kg/injection, schedule: Q01DX001 (ip), vehicle: acetone) 96 % of control; (dose: 12.5 mg/kg/injection, schedule: Q01DX009 (ip), vehicle: acetone) 92 % of control; (dose: 12.5 mg/kg/injection, schedule: Q04DX003 (ip), vehicle: acetone) 101 % of control; (dose: 25.0 mg/kg/injection, schedule: Q01DX001 (ip), vehicle: acetone) 112 % of control. For the same compound, the T/C (dose: 25.0 mg/kg/injection, schedule: Q04DX003 (ip), vehicle: acetone) was 97 % of control.
